Patent publication US4663329A, “Thienopyridinone derivatives and anti-bacterial compositions containing them” (Sanofi, priority 1984, dated 1987)
Converted amounts (≈) assume the structure as drawn. Read-outs that look alike come from different tables or passages of the source.

Columns and labels:
Type in all cases: cell-based
[1] = test system: Acinetobacter calcoaceticus C 1733; experiment: In vitro antibacterial activity, MIC, Acinetobacter calcoaceticus C 1733; conditions: C1733, 37° C., pH=7.4, inoculum 10^4, read-out: MIC
Procedure: (§1) Tests carried out in vitro in accordance with the experimental procedure described hereunder have provided evidence of the antibacterial activity in question.
(§2) For this purpose, the M.I.C. were determined i.e. the minimal inhibiting concentrations of the compound under study acting on the growth of the bacteria at 37° C.
(§3) The serial dilutions method was used utilizing a MUELLER HINTON gelose medium at pH=7.4 and a bacterial inoculum of 10^4 units forming colonies. This inoculum was applied to the gelose by means of a multiple sowing device.
(§4) A scale of concentrations ranging from 100 to 0.05 μg/ml of compound to be studied was used starting from mother solutions titrating 1000 μg/ml, all the subsequent dilutions being effected in distilled water.

[2] = test system: Pseudomonas aeruginosa 8203; experiment: In vitro antibacterial activity, MIC, Pseudomonas aeruginosa 8203; conditions: 37° C., pH=7.4, inoculum 10^4, read-out: MIC
Procedure: as §1, §2, §3, §4

[3] = test system: Klebsiella pneumoniae R 30; experiment: In vitro antibacterial activity, MIC, Klebsiella pneumoniae R 30; conditions: R30
Procedure: as §1, §2, §3, §4

[4] = test system: Enterobacter hafniae RO 46; experiment: In vitro antibacterial activity, MIC, Enterobacter hafniae RO 46; conditions: Hafnia alvei, RO46
Procedure: as §1, §2, §3, §4

[5] = test system: Providencia stuartii 5158; experiment: In vitro antibacterial activity, MIC, Providencia stuartii 5158
Procedure: as §1, §2, §3, §4

[6] = test system: Serratia liquefaciens 376; experiment: In vitro antibacterial activity, MIC, Serratia liquefaciens 376; conditions: 37° C., pH=7.4, inoculum 10^4, read-out: MIC
Procedure: as §1, §2, §3, §4

[7] = test system: Staphylococcus aureus 53154 IP; experiment: In vitro antibacterial activity, MIC, Staphylococcus aureus 53154 IP
Procedure: as §1, §2, §3, §4

[8] = test system: Bacillus subtilis ATCC 6633; experiment: In vitro antibacterial activity, MIC, Bacillus subtilis ATCC 6633; conditions: ATCC6633
Procedure: as §1, §2, §3, §4

[9] = test system: Salmonella typhimurium A 222 IP; experiment: In vitro antibacterial activity, MIC, Salmonella typhimurium A 222 IP; conditions: Salmonella enterica
Procedure: as §1, §2, §3, §4

[10] = test system: Klebsiella pneumoniae ATCC 10031; experiment: In vitro antibacterial activity, MIC, Klebsiella pneumoniae ATCC 10031; conditions: ATCC10031; Klebsiella pneumoniae ATCC 10031; 37° C., pH=7.4, inoculum 10^4; read-out: MIC
Procedure: as §1, §2, §3, §4

[11] = test system: Citrobacter freundii GN 346; experiment: In vitro antibacterial activity, MIC, Citrobacter freundii GN 346; conditions: GN346
Procedure: as §1, §2, §3, §4

[12] = test system: Salmonella typhi ATCC 6539; experiment: In vitro antibacterial activity, MIC, Salmonella typhi ATCC 6539; conditions: Salmonella enterica
Procedure: as §1, §2, §3, §4

[13] = test system: Escherichia coli 54127 IP; experiment: In vitro antibacterial activity, MIC, Escherichia coli 54127 IP; conditions: Escherichia coli 54127 IP; 37° C., pH=7.4, inoculum 10^4; read-out: MIC
Procedure: as §1, §2, §3, §4

[14] = test system: Proteus vulgaris RL 99 bis; experiment: In vitro antibacterial activity, MIC, Proteus vulgaris RL 99 bis; conditions: RL99BIS
Procedure: as §1, §2, §3, §4

[15] = test system: Proteus mirabilis ATCC 21100; experiment: In vitro antibacterial activity, MIC, Proteus mirabilis ATCC 21100; conditions: ATCC21100
Procedure: as §1, §2, §3, §4

[16] = test system: Streptococcus faecalis 5855 IP; experiment: In vitro antibacterial activity, MIC, Streptococcus faecalis 5855 IP; conditions: Enterococcus faecalis, 37° C., pH=7.4, inoculum 10^4, read-out: MIC
Procedure: as §1, §2, §3, §4

Proteus morganii 1510 = experiment: In vitro antibacterial activity, MIC, Proteus morganii 1510; conditions: Morganella morganii
Procedure: as §1, §2, §3, §4

[17] = test system: Enterobacter cloacae P 99; experiment: In vitro antibacterial activity, MIC, Enterobacter cloacae P 99; conditions: Enterobacter cloacae, P99
Procedure: as §1, §2, §3, §4

[18] = test system: Escherichia coli SOL RL 90; experiment: In vitro antibacterial activity, MIC, Escherichia coli SOL RL 90; conditions: SOLRL90
Procedure: as §1, §2, §3, §4

[19] = test system: Bordetella bronchiseptica ATCC 4617; experiment: In vitro antibacterial activity, MIC, Bordetella bronchiseptica ATCC 4617; conditions: ATCC4617, 37° C., pH=7.4, inoculum 10^4, read-out: MIC
Procedure: as §1, §2, §3, §4

Shigella sonnei R 018 = experiment: In vitro antibacterial activity, MIC, Shigella sonnei R 018; conditions: R018, 37° C., pH=7.4, inoculum 10^4
Procedure: as §1, §2, §3, §4

[20] = Enterobacter hafniae RO 46, 37° C., pH=7.4, inoculum 10^4, read-out: MIC
[21] = Providencia stuartii 5158, 37° C., pH=7.4, inoculum 10^4, read-out: MIC
[22] = Staphylococcus aureus 53154 IP, 37° C., pH=7.4, inoculum 10^4, read-out: MIC
[23] = Proteus vulgaris RL 99 bis, 37° C., pH=7.4, inoculum 10^4, read-out: MIC
[24] = Proteus mirabilis ATCC 21100, 37° C., pH=7.4, inoculum 10^4, read-out: MIC
[25] = Proteus morganii 1510, 37° C., pH=7.4, inoculum 10^4, read-out: MIC
[26] = Bacillus subtilis ATCC 6633, 37° C., pH=7.4, inoculum 10^4, read-out: MIC
[27] = Klebsiella pneumoniae R 30, 37° C., pH=7.4, inoculum 10^4, read-out: MIC
[28] = Salmonella typhimurium A 222 IP, 37° C., pH=7.4, inoculum 10^4, read-out: MIC
[29] = Citrobacter freundii GN 346, 37° C., pH=7.4, inoculum 10^4, read-out: MIC
[30] = Escherichia coli SOL RL 90, 37° C., pH=7.4, inoculum 10^4, read-out: MIC

Compound	MIC [1] [µg/mL]	MIC [2] [µg/mL]	MIC [4, 20] [µg/mL]	MIC [5, 21] [µg/mL]	MIC [6] [µg/mL]	MIC [7, 22] [µg/mL]	MIC ([8]; Bacillus subtilis) [µg/mL]	MIC ([9]; TYPHIMURIUM) [µg/mL]	MIC [10] [µg/mL]	MIC ([11]; Citrobacter freundii) [µg/mL]	MIC [12] [µg/mL]	MIC [13] [µg/mL]	MIC [14, 23] [µg/mL]	MIC [15, 24] [µg/mL]	MIC [16] [µg/mL]	MIC (Proteus morganii 1510; [25]) [µg/mL]	MIC [17] [µg/mL]	MIC [19] [µg/mL]	MIC (Shigella sonnei R 018) [µg/mL]	MIC [3, 27] [µg/mL]	also measured
CCn1cc(C(=O)O)c(=O)c2cc(/C=N\O)sc21 [Compound C, 4,7-Dihydro-7-ethyl-2-hydroxyiminomethyl-4-oxo-thieno[2,3-b]pyridine-5-carboxylic acid, syn-isomer]	> 100	> 100	12.5 (≈ 46.9 µM)	12.5 (≈ 46.9 µM)	50 (≈ 188 µM)	12.5 (≈ 46.9 µM)	6.25 (≈ 23.5 µM)	3.12 (≈ 11.7 µM)	12.5 (≈ 46.9 µM)	3.12 (≈ 11.7 µM)	3.12 (≈ 11.7 µM)	12.5 (≈ 46.9 µM)	12.5 (≈ 46.9 µM)	12.5 (≈ 46.9 µM)	> 100	0.4 (≈ 1.5 µM)	3.12 (≈ 11.7 µM)	> 100	0.8 (≈ 3 µM)		MIC ([3]; Klebsiella pneumoniae): 6.25 µg/mL (≈ 23.5 µM); MIC ([18]; Escherichia coli): 3.12 µg/mL (≈ 11.7 µM)
CCn1cc(C(=O)O)c(=O)c2cc(C=NOC)sc21 [Compound D, 4,7-Dihydro-7-ethyl-2-methoxyiminomethyl-4-oxo-thieno[2,3-b]pyridine-5-carboxylic acid]	> 100	> 100			50 (≈ 178 µM)			3.12 (≈ 11.1 µM)	0.2 (≈ 0.714 µM)	3.12 (≈ 11.1 µM)	3.12 (≈ 11.1 µM)	0.78 (≈ 2.78 µM)	0.78 (≈ 2.78 µM)	0.78 (≈ 2.78 µM)	> 100		1.56 (≈ 5.57 µM)	12.5 (≈ 44.6 µM)	1.56 (≈ 5.57 µM)		MIC ([3]; Klebsiella pneumoniae): 3.12 µg/mL (≈ 11.1 µM); MIC [4]: 1.56 µg/mL (≈ 5.57 µM); MIC ([5]; Providencia stuartii, 5158): 3.12 µg/mL (≈ 11.1 µM); MIC ([7]; Staphylococcus aureus, 53154IP): 1.56 µg/mL (≈ 5.57 µM); MIC [8, 26]: 0.78 µg/mL (≈ 2.78 µM); MIC (Proteus morganii 1510; 1510): 3.12 µg/mL (≈ 11.1 µM); MIC ([18]; Escherichia coli): 3.12 µg/mL (≈ 11.1 µM)
CCn1cc(C(=O)O)c(=O)c2cc(C=NOCCCN(C)C)sc21 [Compound E, 4,7-Dihydro-7-ethyl-2-(3-N,N-dimethylamino-propoxy)-iminomethyl-4-oxo-thieno[2,3-b]pyridine-5-carboxylic acid]	> 100	> 100	6.25 (≈ 17.8 µM)	25 (≈ 71.1 µM)	50 (≈ 142 µM)	6.25 (≈ 17.8 µM)			3.12 (≈ 8.88 µM)		25 (≈ 71.1 µM)	6.25 (≈ 17.8 µM)	12.5 (≈ 35.6 µM)	3.12 (≈ 8.88 µM)	100 (≈ 285 µM)	25 (≈ 71.1 µM)	12.5 (≈ 35.6 µM)	> 100	25 (≈ 71.1 µM)	25 (≈ 71.1 µM)	MIC [8, 26]: 6.25 µg/mL (≈ 17.8 µM); MIC [9, 28]: 25 µg/mL (≈ 71.1 µM); MIC [11, 29]: 12.5 µg/mL (≈ 35.6 µM); MIC [18, 30]: 25 µg/mL (≈ 71.1 µM)
CCn1cc(C(=O)O)c(=O)c2cc(C=Nc3ccccc3O)sc21 [Compound F, 4,7-Dihydro-7-ethyl-2-N-(2-hydroxy-phenyl)-iminomethyl-4-oxo-thieno[2,3-b]pyridine-5-carboxylic acid]	100 (≈ 292 µM)	> 100	1.56 (≈ 4.56 µM)	12.5 (≈ 36.5 µM)	> 100	100 (≈ 292 µM)	6.25 (≈ 18.3 µM)	3.12 (≈ 9.11 µM)	12.5 (≈ 36.5 µM)	6.25 (≈ 18.3 µM)	3.12 (≈ 9.11 µM)	1.56 (≈ 4.56 µM)			> 100		6.25 (≈ 18.3 µM)	> 100	6.25 (≈ 18.3 µM)	12.5 (≈ 36.5 µM)	MIC ([14]; Proteus vulgaris): 3.12 µg/mL (≈ 9.11 µM); MIC ([15]; Proteus mirabilis): 3.12 µg/mL (≈ 9.11 µM); MIC (Proteus morganii 1510; 1510): 6.25 µg/mL (≈ 18.3 µM); MIC ([18]; Escherichia coli): 3.12 µg/mL (≈ 9.11 µM)
CCn1cc(C(=O)O)c(=O)c2cc(C=Nc3ccc(OC)cc3)sc21 [Compound G, 4,7-Dihydro-7-ethyl-2-N-(4-methoxy-phenyl)-iminomethyl-4-oxo-thieno[2,3-b]pyridine-5-carboxylic acid]	> 100	> 100	1.56 (≈ 4.38 µM)	12.5 (≈ 35.1 µM)	100 (≈ 281 µM)	> 100	6.25 (≈ 17.5 µM)		12.5 (≈ 35.1 µM)	6.25 (≈ 17.5 µM)	6.25 (≈ 17.5 µM)	1.56 (≈ 4.38 µM)	1.56 (≈ 4.38 µM)		> 100	0.78 (≈ 2.19 µM)	6.25 (≈ 17.5 µM)	> 100	6.25 (≈ 17.5 µM)	12.5 (≈ 35.1 µM)	MIC [9, 28]: 3.12 µg/mL (≈ 8.75 µM); MIC ([15]; Proteus mirabilis): 6.25 µg/mL (≈ 17.5 µM); MIC [18, 30]: 3.12 µg/mL (≈ 8.75 µM)
CCn1cc(C(=O)O)c(=O)c2cc(C=NOC(C)(C)C)sc21 [Compound I, 4,7-Dihydro-7-ethyl-4-oxo-2-tert-butoxyiminomethyl-thieno[2,3-b]pyridine-5-carboxylic acid]	> 25	> 25	> 25	> 50	> 25	> 50			3.12 (≈ 9.68 µM)		> 25	> 25	> 50	> 25	> 100	> 25	> 25	> 25	> 50	> 25	MIC [8, 26]: 1.56 µg/mL (≈ 4.84 µM); MIC [9, 28]: > 50 µg/mL; MIC [11, 29]: > 25 µg/mL; MIC [18, 30]: > 50 µg/mL
